# Activity calls are given as the source filed them. The calls are words filed in the database; no cut-off is given here.
# How the values were obtained:
# Mus musculus [1] = assay: Toxicity in Swiss nu/nu mouse assessed as hematological anomalies by measuring WBC count at 160 mg/kg, ip administered three times a week for two-week period measured on day 15 (reference value: 2420 +/- 782 /microL); format: organism-based; details: in vivo
# [2] = Cytotoxicity against human MCF7/6 cells assessed as reduction of cellular protein content at 0.01 to 100 umol/L after 6 days by SRB assay; format: cell-based; details: mcf7/6, 144 h
# Mus musculus [3] = assay: Toxicity in Swiss nu/nu mouse assessed as hematological anomalies by measuring creatinine level at 1.6 mg/kg, ip administered three times a week for two-week period measured on day 15 (reference value: 0.29 +/- 0.02 mg/dL); format: organism-based; details: in vivo
# Mus musculus [4] = assay: Toxicity in Swiss nu/nu mouse assessed as hematological anomalies by measuring AST level at 1.6 mg/kg, ip administered three times a week for two-week period measured on day 15 (reference value: 254.2 +/- 144.6 IU/L); format: organism-based; details: in vivo
# [5] = Octanol-phosphate buffer partition coefficient, log D of the compound at 100 umol/L at pH 7.4; format: physicochemical
# MCF7/6 = assay: Antiinvasive activity in human MCF7/6 cells assessed as Cmin for progressive occupation of chicken precultured heart tissue fragments at 0.01 to 10 umol/L after 8 days by chick heart invasion assay; format: functional, cell-based
# MDA-MB-231 [6] = assay: Cytotoxicity against human MDA-MB-231 cells expressing GFP-Luc assessed as reduction of cellular protein content at 0.01 to 100 umol/L after 6 days by SRB assay; format: cell-based; details: mda-mb-231, 144 h
# [7] = Intrinsic clearance in human liver S9 fraction at 0.1 umol/L; format: ADME, subcellular; details: read-out: CLH
# [8] = Aqueous solubility of the compound in simulated gastric fluid at 200 umol/L; format: physicochemical
# MDA-MB-231 [9] = assay: Cytotoxicity against human MDA-MB-231 cells expressing GFP assessed as reduction of cellular protein content at 0.01 to 100 umol/L after 6 days by SRB assay; format: cell-based; details: mda-mb-231, 144 h
# [10] = Protein binding in human plasma assessed as recovery at 10 umol/L; format: ADME, cell-free; details: read-out: Drug recovery
# [11] = Half life of the compound in PBS at pH 7.4 at 1 umol/L; format: ADME
# [12] = Antiinvasive activity in human in BLM cells assessed as reduction of amount of cells present on filter at 10 umol/L after 24 hrs by matrigel invasion assay (reference value: 100%); format: functional; set-up: scale not given: the % may be the effect or the level left
# Mus musculus [13] = assay: Toxicity in Swiss nu/nu mouse assessed as hematological anomalies by measuring WBC count at 16 mg/kg, ip administered three times a week for two-week period measured on day 15 (reference value: 2420 +/- 782 /microL); format: organism-based; details: in vivo
# [14] = Permeability across apical to basolateral side of human Caco2 cells at 10 umol/L at pH 7.4; format: ADME, cell-based; details: Caco-2, pH 7.4, read-out: permeability
# SK-OV-3 = assay: Antiinvasive activity in human in SKOV3 cells assessed as reduction of amount of cells present on filter at 1 umol/L after 24 hrs by matrigel invasion assay (reference value: 100%); format: functional; set-up: scale not given: the % may be the effect or the level left
# Mus musculus [15] = assay: Toxicity in Swiss nu/nu mouse assessed as hematological anomalies by measuring AST level at 16 mg/kg, ip administered three times a week for two-week period measured on day 15 (reference value: 254.2 +/- 144.6 IU/L); format: organism-based; details: in vivo
# Mus musculus [16] = assay: Toxicity in Swiss nu/nu mouse assessed as hematological anomalies by measuring ALT level at 1.6 mg/kg, ip administered three times a week for two-week period measured on day 15 (reference value: 29.6 +/- 5.6 IU/L); format: organism-based; details: in vivo
# [17] = Half life of the compound in simulated gastric fluid at 1 umol/L; format: ADME
# MDA-MB-231 [18] = assay: Cytotoxicity against human MDA-MB-231 cells expressing GFP-Luc assessed as reduction of mitochondrial activity at 0.01 to 100 umol/L after 6 days by MTT assay; format: cell-based; details: mda-mb-231, 144 h
# [19] = Cytotoxicity against human BLM cells assessed as reduction of mitochondrial activity at > 10 umol/L after 24 hrs by MTT assay; format: cell-based
# [20] = Cytotoxicity against human MCF7/6 cells assessed as reduction of mitochondrial activity at 10 to 100 umol/L after 8 days by MTT assay; format: cell-based; details: mcf7/6, 192 h
# MCF10 [21] = assay: Cytotoxicity against human MCF10 cells assessed as reduction of mitochondrial activity at 0.01 to 100 umol/L after 6 days by MTT assay; format: cell-based; details: mcf10, 144 h
# hERG [22] = target: T1, hERG (Homo sapiens, UniProt Q12809); assay: Inhibition of human ERG assessed as reduction of tail current at 1 umol/L
# T1 sequence (Q12809 whole entry): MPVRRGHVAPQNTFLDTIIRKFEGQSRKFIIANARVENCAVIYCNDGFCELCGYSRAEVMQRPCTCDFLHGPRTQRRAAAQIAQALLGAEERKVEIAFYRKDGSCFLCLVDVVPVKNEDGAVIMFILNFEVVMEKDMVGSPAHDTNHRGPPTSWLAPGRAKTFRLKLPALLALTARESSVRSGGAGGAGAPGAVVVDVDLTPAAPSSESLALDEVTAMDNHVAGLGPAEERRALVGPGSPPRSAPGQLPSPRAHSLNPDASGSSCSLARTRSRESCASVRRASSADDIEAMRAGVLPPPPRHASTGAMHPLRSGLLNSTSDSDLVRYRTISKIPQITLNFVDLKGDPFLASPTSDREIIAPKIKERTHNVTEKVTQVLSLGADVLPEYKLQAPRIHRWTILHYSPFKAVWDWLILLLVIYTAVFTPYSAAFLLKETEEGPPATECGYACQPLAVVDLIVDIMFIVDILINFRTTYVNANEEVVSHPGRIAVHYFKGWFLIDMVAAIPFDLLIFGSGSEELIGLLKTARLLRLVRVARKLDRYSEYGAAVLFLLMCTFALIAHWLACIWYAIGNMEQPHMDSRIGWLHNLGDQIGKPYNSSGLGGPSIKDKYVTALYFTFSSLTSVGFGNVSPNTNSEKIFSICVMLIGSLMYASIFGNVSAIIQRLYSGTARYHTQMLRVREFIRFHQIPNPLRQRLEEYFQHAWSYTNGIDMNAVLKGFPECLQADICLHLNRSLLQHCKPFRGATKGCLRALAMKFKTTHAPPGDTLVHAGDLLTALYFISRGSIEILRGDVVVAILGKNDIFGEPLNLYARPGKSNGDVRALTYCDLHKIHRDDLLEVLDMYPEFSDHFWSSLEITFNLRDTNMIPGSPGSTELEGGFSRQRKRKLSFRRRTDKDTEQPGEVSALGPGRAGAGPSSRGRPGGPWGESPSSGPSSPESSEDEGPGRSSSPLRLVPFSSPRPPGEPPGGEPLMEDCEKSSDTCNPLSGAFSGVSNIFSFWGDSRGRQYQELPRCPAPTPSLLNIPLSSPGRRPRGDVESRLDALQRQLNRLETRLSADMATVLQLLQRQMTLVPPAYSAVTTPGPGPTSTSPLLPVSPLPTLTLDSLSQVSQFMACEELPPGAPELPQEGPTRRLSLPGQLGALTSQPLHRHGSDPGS
# hERG [23] = target: T1, hERG; assay: Inhibition of human ERG assessed as reduction of tail current at 10 umol/L
# [24] = Toxicity in human HepG2 cells assessed as cell viability at 10 umol/L; format: cell-based; details: read-out: Activity
# [25] = target: Vascular endothelial growth factor receptor 2 (Homo sapiens) (UniProt P35968); assay: Inhibition of human KDR using and Ulight-CAGAGAIETDKEYYTVKD as substrate at 0.1 umol/L after 1 hr by FRET assay
# Sequence of Vascular endothelial growth factor receptor 2 (Homo sapiens) (P35968 whole entry): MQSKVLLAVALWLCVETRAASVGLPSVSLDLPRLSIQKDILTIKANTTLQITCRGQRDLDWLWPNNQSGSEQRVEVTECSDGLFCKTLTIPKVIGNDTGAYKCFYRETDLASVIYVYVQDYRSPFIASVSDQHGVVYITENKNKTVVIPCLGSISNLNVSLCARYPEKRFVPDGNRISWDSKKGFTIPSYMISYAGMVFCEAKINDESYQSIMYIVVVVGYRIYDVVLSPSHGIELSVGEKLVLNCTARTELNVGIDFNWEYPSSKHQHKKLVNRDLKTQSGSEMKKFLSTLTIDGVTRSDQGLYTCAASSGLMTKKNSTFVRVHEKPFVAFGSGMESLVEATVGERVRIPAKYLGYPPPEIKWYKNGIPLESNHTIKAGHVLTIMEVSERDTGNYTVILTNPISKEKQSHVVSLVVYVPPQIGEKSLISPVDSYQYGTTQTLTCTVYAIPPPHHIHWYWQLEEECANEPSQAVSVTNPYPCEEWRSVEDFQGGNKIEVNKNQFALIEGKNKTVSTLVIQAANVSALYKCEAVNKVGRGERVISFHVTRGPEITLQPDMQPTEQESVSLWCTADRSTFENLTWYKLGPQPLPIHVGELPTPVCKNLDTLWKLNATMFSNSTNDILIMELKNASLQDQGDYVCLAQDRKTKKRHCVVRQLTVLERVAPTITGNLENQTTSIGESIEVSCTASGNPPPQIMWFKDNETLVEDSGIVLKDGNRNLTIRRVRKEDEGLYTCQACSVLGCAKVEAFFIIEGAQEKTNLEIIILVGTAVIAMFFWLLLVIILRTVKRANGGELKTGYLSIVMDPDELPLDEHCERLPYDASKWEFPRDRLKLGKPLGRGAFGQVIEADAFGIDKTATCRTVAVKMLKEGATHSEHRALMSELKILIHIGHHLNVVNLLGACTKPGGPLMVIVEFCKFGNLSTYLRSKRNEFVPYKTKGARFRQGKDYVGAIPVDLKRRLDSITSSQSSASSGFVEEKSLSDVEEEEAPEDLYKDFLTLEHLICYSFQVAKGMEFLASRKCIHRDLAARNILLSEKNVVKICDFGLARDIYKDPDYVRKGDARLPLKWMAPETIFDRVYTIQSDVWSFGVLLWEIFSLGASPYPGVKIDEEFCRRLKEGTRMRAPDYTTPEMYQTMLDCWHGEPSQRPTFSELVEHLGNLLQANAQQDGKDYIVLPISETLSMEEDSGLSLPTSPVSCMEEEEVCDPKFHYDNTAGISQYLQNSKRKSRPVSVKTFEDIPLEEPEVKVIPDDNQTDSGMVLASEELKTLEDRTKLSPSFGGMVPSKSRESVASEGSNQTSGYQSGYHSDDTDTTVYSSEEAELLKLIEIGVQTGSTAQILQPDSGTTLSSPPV
# Mus musculus [26] = assay: Toxicity in Swiss nu/nu mouse assessed as hematological anomalies by measuring ALT level at 160 mg/kg, ip administered three times a week for two-week period measured on day 15 (reference value: 29.6 +/- 5.6 IU/L); format: organism-based; details: in vivo
# [27] = Half life in human blood at 1 umol/L; format: ADME, tissue-based
# [28] = Aqueous solubility of the compound in PBS at pH 7.4 at 200 umol/L; format: physicochemical
# Mus musculus [29] = assay: Toxicity in Swiss nu/nu mouse assessed as hematological anomalies by measuring ALT level at 16 mg/kg, ip administered three times a week for two-week period measured on day 15 (reference value: 29.6 +/- 5.6 IU/L); format: organism-based; details: in vivo
# [30] = Half life of the compound in simulated intestinal fluid at 1 umol/L; format: ADME
# [31] = Toxicity in human HepG2 cells assessed as cell viability at 0.1 umol/L; format: cell-based; details: read-out: Activity
# [32] = Intrinsic clearance in Sprague-Dawley rat liver S9 fraction at 0.1 umol/L; format: ADME, subcellular; details: read-out: CLH
# Mus musculus [33] = assay: Toxicity in human MCF7/6 cells xenografted Swiss nu/nu mouse assessed as macroscopic metastases at 160 mg/kg, ip administered thrice a week measured after 3 months; format: organism-based; details: in vivo, 2191.5 h
# MCF10 [34] = assay: Cytotoxicity against human MCF10 cells assessed as reduction of cellular protein content at 0.01 to 100 umol/L after 6 days by SRB assay; format: cell-based; details: mcf10, 144 h
# [35] = Antiinvasive activity in human MCF7/6 cells assessed as Cmin for progressive occupation of chicken precultured heart tissue fragments after 8 days by chick heart invasion assay; format: functional
structure (smiles),measurement,setting,value
COc1cc(C(=O)/C=C/c2ccc(F)cc2)cc(OC)c1OC,Activity,Mus musculus [1],3180 µL⁻¹
same,Activity,[2],Non-toxic
same,Activity,Mus musculus [3],0.22 mg/dL
same,Activity,Mus musculus [4],135.5 IU/L
same,logD at 100 µM,[5],3.85
same,Activity,MCF7/6,Active
same,Activity,MDA-MB-231 [6],Non-toxic
same,microsomal CLint at 0.1 µM,[7],57.3 µL/min/mg
same,solubility at 200 µM,[8],9.1 µM
same,Activity,MDA-MB-231 [9],Non-toxic
same,recovery at 10 µM,[10],90%
same,half-life at 1 µM,[11],> 4 h
same,Activity,[12],7%
same,Activity,Mus musculus [13],5960 µL⁻¹
same,Papp A→B at 10 µM,[14],10.4 ×10⁻⁶ cm/s
same,Activity,SK-OV-3,18%
same,Activity,Mus musculus [15],167.5 IU/L
same,Activity,Mus musculus [16],30.5 IU/L
same,half-life at 1 µM,[17],> 1 h
same,Activity,MDA-MB-231 [18],Non-toxic
same,Activity,[19],Toxic
same,Activity,[20],Toxic
same,Activity,MCF10 [21],Non-toxic
same,inhibition at 1 µM,hERG [22],9.8%
same,inhibition at 10 µM,hERG [23],28.3%
same,viability at 10 µM,[24],44.3%
same,inhibition,[25],-3.5%
same,Activity,Mus musculus [26],33.2 IU/L
same,half-life at 1 µM,[27],0.167 h
same,solubility at 200 µM,[28],2.4 µM
same,Activity,Mus musculus [29],28.1 IU/L
same,half-life at 1 µM,[30],> 4 h
same,viability at 0.1 µM,[31],93.7%
same,microsomal CLint at 0.1 µM,[32],116 µL/min/mg
same,Activity,Mus musculus [33],Non-toxic
same,Activity,MCF10 [34],Non-toxic
same,Cmin,[35],0.01 µmol/L
